One block for each molecule: values may come before it.
Assay: thermodynamic stability of the polymorphic crystalline forms of Fasidotril
Format: physicochemical
From the text: It has been discovered that Fasidotril can exist in various polymorphic crystalline forms which differ from each other in their physical and spectroscopic properties, their zones of thermodynamic stability and their methods of preparation. Four of these novel forms are described below and will be designated as form I, form II, form III and form IV, respectively.
It is shown that among these four forms, forms I and II are stable at low and high temperature, respectively, while forms III and IV are unstable and can be easily converted to the stable form I or II depending on the operating conditions chosen.
It is also shown that it is possible to convert form I to form II and to convert form II to form I depending on the operating conditions chosen.

stability of the polymorphic form (at low temperature): stable
Structure (SMILES): CC(=O)SC[C@@H](Cc1ccc2c(c1)OCO2)C(=O)N[C@@H](C)C(=O)OCc1ccccc1 [form I, benzyl (S,S)-2-(2-acetylsulphanylmethyl-3-benzo[1,3]dioxol-5-ylpropionylamino)propionate]

stability of the polymorphic form (at high temperature): stable
Structure (SMILES): CC(=O)SC[C@@H](Cc1ccc2c(c1)OCO2)C(=O)N[C@@H](C)C(=O)OCc1ccccc1 [form II, benzyl (S,S)-2-(2-acetylsulphanylmethyl-3-benzo[1,3]dioxol-5-ylpropionylamino)propionate]

stability of the polymorphic form (can be easily converted to the stable form I or II depending on the operating conditions): unstable
Structure (SMILES): CC(=O)SC[C@@H](Cc1ccc2c(c1)OCO2)C(=O)N[C@@H](C)C(=O)OCc1ccccc1 [form III, benzyl (S,S)-2-(2-acetylsulphanylmethyl-3-benzo[1,3]dioxol-5-ylpropionylamino)propionate]
